In patent US6797699B1, “Neuroprotective agents” (University of Southampton, priority 1997, dated 2004):
Marks after values point to notes of the source that are not given here.

Experiments:
[1] = tested on: CA1 pyramidal cell layer of organotypic hippocampal slice cultures; assay: Hypoxic neuronal damage in organotypic hippocampal slice cultures (propidium iodide fluorescence); format: cell-based, Wistar rat; settings: 300 μM for 24 hours
[2] = tested on: CA1 pyramidal cell layer of organotypic hippocampal slice cultures; assay: as above; format: cell-based, Wistar rat; settings: for neuroprotective effect (in words): 300 μM added 30 minutes prior to hypoxia, during hypoxia and the 24 hour recovery period
Experimental: Hypoxic neuronal damage was studied using organotypic hippocampal slice cultures [Pringle A. K. et al. (1996 Stroke 27 2124-2130)].
Cultures were prepared according to the method of Stoppini et al (1991 J. Neurosci. Meth. 37 173-182) from 8-10 day old Wistar rat pups (Bioresources Unit, University of Southampton). Cultures were maintained in vitro for 14 days (37° C., 5% CO2) during which the medium (50% minimum essential medium (MEM), 25% Hank's balanced salt solution (HBSS), 25% heat-inactivated horse serum, supplemented with 1 mM glutamine, 5 mg/ml glucose and 1.5% fungizone) was changed every 3 days. Hypoxia was induced by replacing culture medium with serum-free (SF) medium (75% MEM, 25% HBSS, 1 mM glutamine, 5 mg/ml glucose, 1.5% fungizone) saturated with 95% N2/5% CO2 (and thus oxygen-free), and placing cultures in an air-tight chamber in which the atmosphere was also saturated with N2/CO2. After 180 minutes hypoxia, cultures were replated in normoxic SF medium and replaced in the incubator for 24 hours. Compounds were added to cultures either pre-, during and post-hypoxia (herein abbreviated to “pdp”) or just in the post-hypoxic recovery period (“post”) [Johnson, T. D. (1996 Trends Pharmacol. Sci. 22-27)]. Cell damage was evaluated using the fluorescent exclusion dye propidium iodide (PI, 5 μg/ml) which is normally excluded from healthy cells, but enters cells with damaged plasma membranes and becomes highly fluorescent when bound to DNA. Neuronal cell damage was quantified using the “NIH Image 1.55” software (written by Wayne Rasband at the U.S. National Institutes for Health and available from the internet by anonymous ftp from zippy.nimh.nih.gov). Briefly, the area of the CA1, CA3 and dentate gyrus (DG) cell layers was measured from a transmission image. 24 hours after the commencement of hypoxia, a fluorescence image was captured using a standard Leica inverted fluorescence microscope fitted with a rhodamine filter set. The area of PI fluorescence above background in the neuronal cell layers was determined using the density slice function of Image. Cellular damage is expressed as the percentage area of the cell body layers in which PI fluorescence was detectable. After imaging, cultures were fixed overnight in 4% paraformaldehyde and stained with thionin.
Data are expressed as the mean±sem. Data from the non-drug groups was pooled before analysis. Statistical significance was determined using one-way analysis of variance (ANOVA) followed by post-hoc non-paired Student's t-tests. As only cells within the CA1 region were susceptible to hypoxia-induced damage, all of the pharmacological data was calculated for this region alone.
Table 1 represents the quantification of the percentage area of the CA1 pyramidal cell layer in which PI fluorescence was detectable 24 hours after 3 hours of hypoxia (% Damage CA1). Data from all of the cultures exposed to hypoxia alone were pooled (control hypoxia). The percentage neuroprotection was calculated as the (((% damage control hypoxia-% damage drug treated)/% damage control hypoxia) 100). Data are expressed as the mean±sem, n=number of cultures, *p<0.05, **<0.01, ***p<0.001 vs hypoxia control.

[3] = tested on: anaesthetised male Wistar rats; assay: Blood flow studies (mean arterial blood pressure after intravenous injection); format: in vivo, Wistar rat; settings: for MABP (mmHg): pre-injection 79.9 ± 3.9, four observations
Experimental: Adult male Wistar rats (250-300 g) were initially anesthetized with 4% halothane and subsequently anaesthesia was maintained with 1.5% halothane mixed in […] in O2. The femoral artery was cannulated for continuous blood pressure recording. The femoral vein was also cannulated to allow injection of the compound. Animals were allowed 15-30 minutes to stabilise and were then injected with 0.25-0.3 ml of a 1 mg/ml solution of L-ArgSp. Following injection of the compound, rats were continuously monitored for 60 minutes. After this time, anaesthesia was terminated and rats allowed to waken. In these studies, measurement was taken of the mean arterial blood pressure (MABP) induced following an intravenous injection of 1 mg/kg L-ArgSp into the femoral vein of anaesthetised male Wistar rats. MABP was calculated immediately prior to injection of L-ArgSp (pre-injection) and 30 seconds and 10 minutes post-injection. Data are presented as mean […] of four observations.

Adult male Wistar rats = assay: Global forebrain ischaemia in vivo; parameters: species or system Wistar rat; settings: 1 mg/kg 15 minutes prior to 15 minutes global forebrain ischaemia; assessed 24 hours after; vs vehicle
Experimental: Animals were anaesthetised as described above, and a thermistor inserted into the left temporal muscle for recording of body temperature. A dorsal midline skin incision was made in the neck and using microsurgery, the vertebral arteries were identified and occluded using a monopolar electrode at the level of C 1. The incision was closed, animals allowed to recover from anaesthesia and returned to their cages for 24 hours. After this time, animals were re-anaesthetised and the common carotid arteries (CCAs) exposed. Animals were divided into two groups. Group 1 received 0.25-0.3 ml of a 1 mg/ml solution of L-ArgSp (final dose 1 mg/kg) while group 2 received 0.25-0.3 ml of sterile distilled water. Samples were prepared independently and randomised prior to injection. Animals were injected 15 minutes prior to occlusion of the CCAs with microvascular clips for 15 minutes. After this time, the skin was closed, and animals allowed to recover. After 24 hours animals were terminally anaesthetised and transcardially perfused with 1% paraformaldehyde and the brains removed and processed for histology. A blinded observer determined the number of live and dead neurones in the CA1, CA3 fields of the pyramidal cell layer, and the dentate gyrus granule cell layer from haematoxylin and eosin stained coronal sections.

Structure (SMILES): N=C(N)NCCCC(N)C(=O)NCCCNCCCCN [Compound A, N′-L-Arginylspermidine]
- PI fluorescence above baseline after incubation without hypoxia [1]: no increase in PI fluorescence above baseline was observed
- neuroprotective effect (in words) [2]: complete protection
- neuroprotective effect (in words) ([2]; listed as L-ArgSp): completely neuroprotective
- neuroprotective effect / reduction of PI fluorescence in CA1 (in words) ([2]; 300 μM added post-hypoxia): significant protective effect
- neuroprotective effect / reduction of PI fluorescence in CA1 (in words) ([2]; 300 μM added post-hypoxia, listed as L-ArgSp): significant neuroprotective effect
- concentration dependence of the neuroprotective effect ([2]; 0.3-300 μM added immediately post-hypoxia): concentration dependent
- EC50 ([2]; Rattus norvegicus, added immediately post-hypoxia, 0.3-300 μM, read-out: EC50 of the neuroprotective effect): 3 to 30 µM
- % Damage CA1 ([2]; Table 1, 300 μM added post-hypoxia, 3 h hypoxia, PI at 24 h, control hypoxia 35.6 ± 1.43, mean±sem): 9.9 ± 3.5*** %
- % Protection ([2]; Table 1, 300 μM added post-hypoxia, vs control hypoxia): > 70%
- % Protection ([2]; Table 1, 300 μM added post-hypoxia, vs control hypoxia, listed as L-ArgSp): 72.2%
- % Damage CA1 ([2]; Table 1, 300 μM added pre-, during and post-hypoxia (pre), 3 h hypoxia, PI at 24 h, control hypoxia 35.6 ± 1.43, mean±sem, listed as L-ArgSp): 0.2±0.02%
- % Protection ([2]; Table 1, 300 μM added pre-, during and post-hypoxia (pre), vs control hypoxia): 99.4%
- % Protection ([2]; Table 3, 0.3 μM pdp, fresh batch): 15.5%
- % Damage CA1 ([2]; Table 3, 0.3 μM pdp, fresh batch, control hypoxia 23.9 ± 2.7): 20.2 ± 8.4%
- % Protection ([2]; Table 3, 1 μM pdp, fresh batch): 15.9%
- % Damage CA1 ([2]; Table 3, 1 μM pdp, fresh batch, control hypoxia 23.9 ± 2.7): 20.1 ± 8.2%
- % Protection ([2]; Table 3, 3 μM pdp, fresh batch): 72.8%
- % Damage CA1 ([2]; Table 3, 3 μM pdp, fresh batch, control hypoxia 23.9 ± 2.7): 6.5 ± 3.0** %
- % Protection ([2]; Table 3, 10 μM pdp, fresh batch): 63.2%
- % Damage CA1 ([2]; Table 3, 10 μM pdp, fresh batch, control hypoxia 23.9 ± 2.7): 8.8 ± 3.9* %
- % Protection ([2]; Table 3, 30 μM pdp, fresh batch): 65.9%
- % Damage CA1 ([2]; Table 3, 30 μM pdp, fresh batch, control hypoxia 23.9 ± 2.7): 7.3 ± 4.2* %
- % Protection ([2]; Table 3, 300 μM pdp, fresh batch): 66.5%
- % Damage CA1 ([2]; Table 3, 300 μM pdp, fresh batch, control hypoxia 23.9 ± 2.7): 8.0 ± 3.0** %
- % Protection ([2]; Table 7, 300 μM post): 56.3%
- % Damage CA1 ([2]; Table 7, 300 μM post, hypoxia control 27.7 ± 3.1): 12.1 ± 3.5** %
- effect on body temperature ([3]; 1 mg/kg intravenous): No effect
- effect on heart rate ([3]; 1 mg/kg intravenous): No effect
- ill effects on the animals following wakening ([3]; 1 mg/kg intravenous): no ill effects
- reduction in MABP (significance, in words) ([3]; 1 mg/kg intravenous): not statistically significant
- % Charge ([3]; 1 mg/kg intravenous, 30 secs post-injection vs pre-injection): −9.6%
- MABP (mmHg) ([3]; 1 mg/kg intravenous, 30 secs post-injection): 72.2 ± 5.1 mmHg
- % Charge ([3]; 1 mg/kg intravenous, 10 minutes post-injection vs pre-injection): −0.9%
- MABP (mmHg) ([3]; 1 mg/kg intravenous, 10 minutes post-injection): 79.2 ± 6.5 mmHg
- blood pressure recordings (in words) ([3]; 1 mg/kg intravenous, 60 minutes after injection): identical to those 10 minutes post-drug administration
- long-term behavioural deficits ([3]; 1 mg/kg, five rats recovered for three days): no long-term behavioural deficits have been observed
- effect on blood flow compared with FTX (in words) ([3]; rat, in vivo): less adverse effect on blood flow than FTX
- neuronal loss in CA1, CA3 and dentate gyrus (in words) (Adult male Wistar rats): neuronal loss was significantly attenuated
